Paper PMC3766423 (Cancer research, 2013)

Biological target: WRN helicase (Werner syndrome protein) (Homo sapiens, UniProt Q14191)
Test: in vitro WRN helicase
Format: biochemical

Sequence of WRN helicase (Werner syndrome protein) (Q14191 2-1432): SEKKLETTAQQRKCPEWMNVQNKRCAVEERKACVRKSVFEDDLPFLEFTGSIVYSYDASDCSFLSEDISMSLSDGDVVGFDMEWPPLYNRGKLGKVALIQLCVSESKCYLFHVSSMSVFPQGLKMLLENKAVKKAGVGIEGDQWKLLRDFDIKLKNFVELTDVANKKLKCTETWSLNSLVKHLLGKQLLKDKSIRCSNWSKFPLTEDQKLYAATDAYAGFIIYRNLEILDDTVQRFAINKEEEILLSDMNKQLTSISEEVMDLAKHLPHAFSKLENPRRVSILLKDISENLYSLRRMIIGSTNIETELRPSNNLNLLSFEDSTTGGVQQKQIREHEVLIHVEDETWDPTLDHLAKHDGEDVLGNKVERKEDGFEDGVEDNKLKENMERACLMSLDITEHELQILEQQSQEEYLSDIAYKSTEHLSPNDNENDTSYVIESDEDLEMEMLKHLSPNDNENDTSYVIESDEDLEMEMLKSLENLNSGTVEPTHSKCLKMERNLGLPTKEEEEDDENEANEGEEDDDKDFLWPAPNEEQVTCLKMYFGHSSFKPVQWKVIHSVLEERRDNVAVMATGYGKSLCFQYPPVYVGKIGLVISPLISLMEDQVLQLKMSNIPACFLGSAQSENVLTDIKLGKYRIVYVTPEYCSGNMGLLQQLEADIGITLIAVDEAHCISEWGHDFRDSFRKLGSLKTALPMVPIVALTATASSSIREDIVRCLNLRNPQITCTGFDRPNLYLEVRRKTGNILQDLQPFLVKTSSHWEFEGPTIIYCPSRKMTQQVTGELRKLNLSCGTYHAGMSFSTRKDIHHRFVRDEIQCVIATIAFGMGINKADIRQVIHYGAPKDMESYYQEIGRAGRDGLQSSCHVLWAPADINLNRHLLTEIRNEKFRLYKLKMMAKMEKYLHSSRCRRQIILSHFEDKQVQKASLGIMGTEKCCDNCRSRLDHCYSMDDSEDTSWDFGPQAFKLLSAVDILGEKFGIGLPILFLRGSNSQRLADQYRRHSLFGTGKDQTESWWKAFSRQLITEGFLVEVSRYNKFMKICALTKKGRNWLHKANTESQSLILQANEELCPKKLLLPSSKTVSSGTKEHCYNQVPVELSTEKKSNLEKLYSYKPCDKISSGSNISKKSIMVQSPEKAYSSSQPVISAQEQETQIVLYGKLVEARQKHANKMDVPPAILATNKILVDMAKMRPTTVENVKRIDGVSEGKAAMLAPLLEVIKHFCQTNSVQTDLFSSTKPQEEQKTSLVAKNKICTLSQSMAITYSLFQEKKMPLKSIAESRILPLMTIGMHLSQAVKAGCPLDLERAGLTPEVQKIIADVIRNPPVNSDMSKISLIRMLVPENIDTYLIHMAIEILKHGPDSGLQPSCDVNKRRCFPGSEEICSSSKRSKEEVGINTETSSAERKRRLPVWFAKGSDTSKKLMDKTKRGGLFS

IC50: 230 nM
Structure (SMILES): CC(C)(CN1C(=O)C(Cl)=C(Cl)C1=O)CN1C(=O)C(Cl)=C(Cl)C1=O [NSC 617145]
